Source: US10227591B2, “Modulation of human cytomegalovirus replication by micro-RNA 132 (miR132), micro-RNA 145 (miR145) and micro-RNA 212 (miR212)” (priority 2009, dated 2019)

How the values were obtained:
IRS-1 = IRS-1 protein Western blot after transfection with miR145 mimic; assay type: cell-based, Human; settings: HEL fibroblasts; 48, 72 and 96 hours post transfection; compared to control miRNA transfected cells
Description: This experiment was performed to determine whether a miR145 mimic targets Insulin Receptor Substrate-1 (IRS-1) mRNA, which is a target of miR145, in HEL fibroblasts. HEL fibroblasts were transfected with either a control miRNA (ct) or miR145 mimic (145) (Dharmacon). Cell pellets were collected at 24, 48, 72 and 96 hours post transfection and lysed. Western blot was performed using an anti IRS-1 antibody (Upstate Biothechnology). Actin is shown as a loading control. […] This downregulation is not observed in the cells transfected with a control miRNA, or the mock-transfected cells.

HCMV [1] = assay: HCMV viral titers in supernatants by plaque assay after miR145 mimic transfection; assay type: cell-based
Description: This experiment was performed to determine whether altered regulation of miR145 following viral infection affects viral replication. HEL fibroblasts were transfected with either a control (ct) miRNA or a miR145 mimic (145) (Dharmacon). The cells were infected with HCMV (MOI=1) 24 hours after transfection. Supernatants were collected at 24, 48, 72, 96, 120 and 144 hpi and examined for viral titers by plaque assay. […] A 10-fold difference can be observed from 72 to 96 hpi. At 144 hpi, viral titers are similar in the control and miR145 mimic transfected cells. […] This is consistent with the hypothesis that downregulation of miR145 contributes to HCMV pathogenesis by enhancing its replication.

[2] = system: HCMV proteins IE2, pp65, gB55, IE1; assay: HCMV viral protein expression by western blot after miR145 mimic transfection; assay type: cell-based; settings: HEL fibroblasts, HCMV MOI=1, 24-144 hpi; compared to control miRNA
Description: These experiments were performed to establish the role of miR145 on HCMV protein expression. HEL fibroblasts were transfected with either a control miRNA or miR145 mimic (Dharmacon). The cells were infected with HCMV (MOI=1) 24 hours after transfection. Cell pellets were collected at 24, 48, 72, 96, 120 and 144 hpi, lysed and examined for viral protein expression by western blot.

MeCP2 = MeCP2 protein Western blot after transfection with miR132 or miR212 LNA; assay type: cell-based, Human; settings: HEL cells transfected with 500 pmol LNA; nuclear enriched extracts; versus scramble LNA
Excerpt: In order to assess the role of miR132 and miR212 in virus replication, miR132 and miR212 were inhibited using antisense locked nucleic acid (LNA) oligonucleotides targeting miR132 or miR212 Inhibition of miR132 and/or miR212 in this way counteracts the increase in miR132 or miR212 expression that occurs during HCMV infection. To test the efficacy of the LNAs, HEL cells were transfected with 500 pmol of scramble, miR132, or miR212 specific locked nucleic acid (Exiqon) to inhibit miRNA function. Nuclear enriched extracts were prepared, and protein levels were determined by Western blot.

HCMV [3] = assay: HCMV virus release by plaque assay after antisense miR132 LNA transfection; assay type: cell-based; settings: for viral replication (virus release, viral proteins IE2, pp65, gB55): summary statement in the description, transfection of cells
Description: (§1) To determine the role of miR132 on HCMV replication, HEL cells were transfected with antisense miR132 LNA, and were infected with HCMV. The amount of virus released from infected cells was quantitated by plaque assay, and viral protein accumulation was analyzed by Western blot of protein lysates from infected cells. […] Taken together with the previous data, this experiment confirms that miR132 is necessary for efficient HCMV replication, and that HCMV replication can be effectively attenuated by inhibition of miR132.

[4] = system: HCMV proteins IE2, pp65, gB55; assay: HCMV viral protein accumulation by Western blot after antisense miR132 LNA transfection; assay type: cell-based; settings: HEL cells transfected, infected with HCMV; versus control LNA
Description: as §1

Substance	IRS-1 protein level (IRS-1)	viral titers in the supernatants (HCMV [1]; HEL fibroblasts transfected 24 h before HCMV infection (MOI=1), compared to control miRNA)	viral titers versus control (HCMV [1]; HEL fibroblasts, HCMV MOI=1, at 144 hpi)	difference in viral titers (HCMV [1]; HEL fibroblasts, HCMV MOI=1, from 72 to 96 hpi, versus control miRNA) [fold]	reduction in viral titers (HCMV [1]; fibroblast cells transfected, subsequently infected with HCMV) [log]	IE1 levels [2]	levels of the Early (E) protein pp65 [2]	levels of the Immediate Early (IE) 2 protein [2]	levels of the Late (L) protein gB55 [2]	MeCP2 protein levels (MeCP2)	viral replication (virus release, viral proteins IE2, pp65, gB55) (HCMV [3])	expression of viral protein IE2 [4]	expression of viral protein gB55 [4]	expression of viral protein pp65 [4]	decrease in virus replication (HCMV [3]; HEL cells transfected, then infected with HCMV, virus release and viral protein expression) [fold]
miR145 mimic: miR145 mimic (Dharmacon) transfected into HEL fibroblasts; mimics mature miR145 (SEQ ID NO:2) (GUCCAGUUUUCCCAGGAAUCCCU; mimic duplex, passenger strand not given here; listed as Homo sapiens)	Downregulation	decreased viral titers	similar	10	> 1	Increased IE1 levels	Decreased levels	Decreased levels	Decreased levels						
miR212 LNA: miR212 specific antisense locked nucleic acid (Exiqon); exemplary sequence 5' GGCCGTGACTGGAGACTGTTA 3' (SEQ ID NO:14) (LNA-modified antisense, pattern not given here)										modest increase	attenuates viral replication				
miR132 LNA: miR132 specific antisense locked nucleic acid (Exiqon); exemplary sequence 5' CGACCATGGCTGTAGACTGTTA 3' (SEQ ID NO:13) (antisense CGACCATGGCTGTAGACTGTTA; LNA-modified antisense, pattern not given here)										modest increase	attenuates viral replication	reduced	reduced	reduced	3
